According to patent US8372822B2, “Polymorphs of eltrombopag and eltrombopag salts and processes for preparation thereof” (Pliva Hrvatska D.O.O., priority 2009, dated 2013):

What was measured:
Format in all cases: physicochemical
Solubility = assay: Solubility
[1] = Thermo-dynamical stability: conversion to other solid state forms under heating, measured by XRPD; conditions: heating up to 200° C. at 10° C./minute, defined as less than 20%, 5%, 1%, or 0.5% conversion to any other solid state form by XRPD
Protocol: As used herein the term “thermo-dynamical stability” in relation to crystalline Eltrombopag form I refers to less than 20%, 10%, 5%, 1%, or 0.5% conversion of crystalline Eltrombopag form Ito any other solid state form of Eltrombopag under heating up to temperature of 200° C. at a heating rate of 10° C./minute, as measured by XRPD. In some embodiments, the conversion is 1%-20%, 1%-10% or 1%-5%.

[2] = Hygroscopicity: absorption of atmospheric water, measured by TGA; conditions: relative humidity of 80%, 100% at room temperature, non-hygroscopic = less than 0.2% (w/w) absorption of atmospheric water by TGA
Text: As used herein the term non-hygroscopic in relation to crystalline Eltrombopag refers to less than 0.2% (w/w) absorption of atmospheric water to the crystalline Eltrombopag in the above specified conditions, as measured by TGA.

CC1=NN(c2ccc(C)c(C)c2)C(=O)/C1=N\Nc1cccc(-c2cccc(C(=O)O)c2)c1O [Eltrombopag bisethanolamine form II]
solubility in water (Solubility; water): highly soluble in water

CC1=NN(c2ccc(C)c(C)c2)C(=O)/C1=N\Nc1cccc(-c2cccc(C(=O)O)c2)c1O [Eltrombopag form I]
solubility (Solubility; medium not stated): advantageous
thermo-dynamical stability [1]: advantageous

CC1=NN(c2ccc(C)c(C)c2)C(=O)/C1=N\Nc1cccc(-c2cccc(C(=O)O)c2)c1O [Eltrombopag form III]
hygroscopicity ([2]; at least 10 months): non-hygroscopic

CC1=NN(c2ccc(C)c(C)c2)C(=O)/C1=N\Nc1cccc(-c2cccc(C(=O)O)c2)c1O [Eltrombopag form XVI]
hygroscopicity ([2]; at least 5 months): non-hygroscopic
